Experimental data published in patent US8334298B2, “Treatment or prevention of ovarian hyperstimulation syndrome (OHSS) using a dopamine agonist” (Ferring International Center S.A., priority 2005, dated 2012).

How the values were obtained:
[1] = test system: women at risk of developing moderate-severe early OHSS; assay: Prospective, randomized, double blind study of cabergoline in oocyte donors at risk of OHSS (Example 6); type: in vivo
Method: Materials and Methods. Example 5 is a prospective, randomized and double blind study of 54 oocyte donors in whom 20-30 follicles greater than 12 mm developed, and from whom more than 20 oocytes were retrieved. Immediately after hCG administration, patients were divided in two groups based on a computer randomization: 1) the study group (n=29) received 0.5 mg oral cabergoline daily for eight days; the control group (n=25) received one tablet of placebo for the same eight days. The patients were monitored every 48 hours from the day of hCG administration (day 0) up through day 8. The presence of ascites was defined as a pocket of peritoneal fluid greater than 9 cm^2, with the patient in litotomy position seen on vaginal ultrasound. Also, regular blood parameters and serum PRL levels were recorded.

OHSS rats = assay: Previous experiments of the group: cabergoline and vascular permeability in OHSS rats; type: in vivo; settings: cabergoline 250 μg/kg/day; p<0.05
Method: Vehicle control group (quinagolide 0 μg/kg) (n=8). Eight rats were implanted with prolactin placebo pellets, 5 days release, between 10:00 to 11:00 on day 26, just following hCG injection (see General Procedures, above). Six hours after pellet implantation, the rats in this group were orally administered vehicle solution (1:6 alcohol in water mixture) (without quinagolide). They received another oral vehicle administration of vehicle solution 24 hours later. Experimental groups (quinagolide at 0.1, 0.3, 1, 3, 10, 25, 50 μg/kg/day to 7 test groups of rats) (n=8 in each test group). The rats in these groups were implanted with prolactin pellets, 5 days release, between 10:00 to 11:00 on day 26, just following hCG injection (see General Procedures, above). […] In this manner, the desired 0.1, 0.3, 1, 3, 10, 25, 50 μg/kg doses to be assayed were achieved. Twenty four hours later, the rats in this group were administered with another dose of the same amounts of quinagolide. Positive (cabergoline) control group (n=6). These six rats were implanted with prolactin pellets, 5 days release, between 10:00 to 11:00 .m on day 26, just following hCG injection. […] Twenty four hours later, the rats in this group were administered with another dose of the same amount of cabergoline. […] Reconstitution and dilution process to reach appropriate quinagolide doses for oral administration. […]

[2] = test system: patient with pituitary adenoma and OHSS; settings: cabergoline 0.5 mg twice per week for three weeks; cited from earlier work

C=CCN1C[C@H](C(=O)N(CCCN(C)C)C(=O)NCC)C[C@@H]2c3cccc4[nH]cc(c34)C[C@H]21 [Cabergoline, cabergoline]
Haemoglobin day 4 ([1]; 0.5 mg oral cabergoline daily for eight days, n=29, mean ± SEM, p 0.006 vs control): 12.7 ± 1.2 g/dL
Haemoglobin day 6 ([1]; 0.5 mg oral cabergoline daily for eight days, n=29, mean ± SEM, p 0.01 vs control): 12.9 ± 1.2 g/dL
Free fluid area day 6 ([1]; 0.5 mg oral cabergoline daily for eight days, n=29, mean ± SEM, p 0.03 vs control): 8.8 ± 1.7 cm2
Hematocrit day 6 ([1]; 0.5 mg oral cabergoline daily for eight days, n=29, mean ± SEM, p 0.04 vs control): 38.9 ± 3.9%
Ascites % ([1]; 0.5 mg oral cabergoline daily for eight days, 7/29 patients, ascites = pocket of peritoneal fluid greater than 9 cm^2, p 0.01 vs control): 24.1 7/29%
Serum PRL levels ([1]; 0.5 mg oral cabergoline daily, days 2, 4, 6 and 8 as compared to controls, p<0.0001): significantly lower
vascular permeability in OHSS rats (OHSS rats): significant decrease in vascular permeability
prolactin levels [2]: normalized prolactin levels
